# Measured values published in article PMC9114799, “In vitro Evaluation of Isoniazid Derivatives as Potential Agents Against Drug-Resistant Tuberculosis” (Frontiers in Pharmacology, 2022).
# Several values for one entry are separate records, joined by “and”; a condition that tells them apart may be missing. Equal values may be shown once. Read-outs that look alike come from different tables or passages of the source. Marks after values point to notes of the source that are not given here.
# Columns and labels:
# [1] = octanol-water, cited from earlier work
# [2] = test system: M. tuberculosis H37Rv ATCC27294 (wt); conditions: ref Martins et al., cited from earlier work
# [3] = target: T1, human serum albumin (HSA) (Homo sapiens, UniProt P02768); parameters: purchased Merck (Sigma-Aldrich) A9511; method as in Ascenzi et al., 2011; conditions: ref Ascenzi et al., 2011; read-out: K d for HSA previously reported; cited from earlier work
# T1 sequence (P02768 25-609): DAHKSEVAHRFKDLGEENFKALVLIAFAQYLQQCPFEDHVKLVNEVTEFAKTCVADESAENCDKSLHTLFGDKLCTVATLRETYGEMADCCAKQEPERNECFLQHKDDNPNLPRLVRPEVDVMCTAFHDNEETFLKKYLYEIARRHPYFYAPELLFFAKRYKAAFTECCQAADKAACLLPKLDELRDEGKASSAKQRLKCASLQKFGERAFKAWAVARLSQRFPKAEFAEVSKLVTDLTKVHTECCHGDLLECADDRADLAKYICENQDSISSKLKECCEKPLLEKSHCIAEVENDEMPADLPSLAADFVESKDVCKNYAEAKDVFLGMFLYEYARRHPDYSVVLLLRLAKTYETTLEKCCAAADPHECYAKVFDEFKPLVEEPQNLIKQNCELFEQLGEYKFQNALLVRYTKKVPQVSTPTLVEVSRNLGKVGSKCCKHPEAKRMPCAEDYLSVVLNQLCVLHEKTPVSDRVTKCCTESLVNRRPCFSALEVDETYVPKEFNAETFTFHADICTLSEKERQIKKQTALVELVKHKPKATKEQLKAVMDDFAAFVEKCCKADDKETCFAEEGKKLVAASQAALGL
# [4] = test system: HepG2 cells; assay: HepG2 cell viability assay (MTT), 72 h; type: cell-based, human; conditions: for IC50: Homo sapiens, HepG2, 72 h incubation, MTT, 0.5% DMSO, read-out: IC50 against HepG2 cells
# Description: HepG2 cells were plated on 384-well tissue culture treated polystyrene plates at 2000 cells in 25 μl of HepG2 maintenance medium per well. After an overnight incubation at 37°C, the cells were dosed with test compounds in dimethyl sulfoxide (DMSO) and controls over wide ranges of concentrations (Table 1) and incubated for 72 h at 37°C. DMSO was at 0.5% in the final solution. The aqueous solubility of the compounds limited the range of concentrations tested. Cell viability was measured using the Promega CellTiter 96 Non-Radioactive Cell Proliferation Assay (MTT) kit by adding the Dye Solution to each well and incubating for 3 h at 37°C. After incubation, the Solubilization Solution/Stop Mix was added to each well. Plates were incubated at 37°C for 1 h, mixed on a plate shaker for 10 min and then absorbance was read at 570 nm. Cell viability was determined by comparison against control cells in the presence of DMSO only and was measured in three independent replicates for each compound concentration. The IC50 was calculated with GraphPad Prism using a Sigmoidal Dose-response (variable slope) algorithm. Chlorpromazine, a drug with a well-known and characterized hepatotoxicity ([Frötschl et al., 2005]; [Gandhi et al., 2013]; [Morgan et al., 2019]), was used as the positive control.
# To evaluate the in vitro toxicity of this series of INH derivatives, the viability of HepG2 cells, a human liver cancer cell line, was determined by the MTT tetrazolium reduction assay ([Riss et al., 2013]), a colorimetric assay to assess cell metabolic activity, and the IC50 value, i.e., the concentration for 50% reduction in cell viability, was obtained for each compound (Supplementary Figure S6). […] The hepatoxicity of INH is well described ([Girling, 1978]; [Wu and Cederbaum, 1996]; [Huang et al., 2003]; [Bhadauria et al., 2007]; [Singh et al., 2011]) and is much lower than that of chlorpromazine.
# [5] = target: warfarin binding site of HSA (Sudlow's binding site I) (Homo sapiens, UniProt P02768); assay: Competitive binding with warfarin (HSA Sudlow's binding site I)
# warfarin binding site of HSA (Sudlow's binding site I), sequence (P02768 25-609): as above
# Description: Warfarin stock solution was also prepared with DMSO.
# The interaction of INH and its derivatives with HSA was further examined regarding their putative binding site.
# Using the dampening in the fluorescence intensity of warfarin it is possible to retrieve the HSA-compound dissociation constant for the binding site of warfarin (K dc) - Table 3.
# From this variation it is possible to retrieve C50, the concentration of compound that displaces half of […]
# This concentration is given by the fluorescence intensity corresponding to […]
# the intensity of warfarin in water (buffer), which was obtained for warfarin in PBS in the absence of HSA. The C50 value was retrieved for each replicate and the average was used to calculate the Kdc of […]
# (1 picture or pasted object on this page, not shown here)
# [6] = target: T1, human serum albumin (HSA); conditions: for 10-3 K’b / M-1, HSA binding constant from fluorescence intensity variation not accounted for by the decrease in lifetime: head prints 10-3 K’b / M-1, reverse of the dissociation constant
# Description: (§1) INH and INH derivatives stock solutions were prepared in DMSO. From the stock solutions, appropriate dilutions were prepared so that each compound was added to HSA in PBS at different concentrations ensuring that DMSO was at a fixed concentration of 5% (v/v) in the final solution. […] Three or more independent replicates were prepared and analyzed for each system.
# Quartz Suprasil® cuvettes with 1 × 0.4 cm path length were used to gather the spectroscopic data.
# The bandwidth was 4 nm in both excitation and emission paths.
# Whenever the decrease in τ¯ is smaller than the decrease in the steady-state fluorescence intensity, there are multiple quenching mechanisms responsible for a decrease in fluorescence quantum yield, one affecting the amplitude-weighted mean fluorescence lifetime and the fluorescence intensity alike, and another affecting only the fluorescence intensity (a static quenching mechanism). Therefore, for each data point, the decrease in fluorescence intensity that was not due to a decrease in τ¯ was calculated. These values were used to obtain yet another dissociation constant that corresponds to the binding process affecting only the steady-state fluorescence intensity, also shown in Table 3 (K’d). […] This is a consequence of the much larger relative decrease in fluorescence intensity when compared with the decrease in fluorescence lifetime.
# For a static quenching mechanism, K represents the association constant for the formation of non-fluorescent HSA-compound ground-state complex. Therefore, the reverse of K gives an estimate of the dissociation constant. By fitting a straight line to the data in Figure 8 forcing a unitary intercept, i.e., assuming a Stern-Volmer-like behaviour, a reasonable correlation coefficient was obtained in all cases.
# [7] = type: physicochemical; conditions: for stability in aqueous solution: pH 7.4; for fluctuation of the absorption spectra in the UV region: over 3 days, PBS pH 7.4 with 5 % DMSO, N33red at 240 nm, N34red at 269 nm
# Description: INH-C10, N33 and N34 were obtained as fully described in reference ([Martins et al., 2014]). N33red and N34red were obtained by reduction of the parent Schiff base. Sodium cyanoborohydride (2 equiv.) was added portion wise to a solution of N33 or N34 in hot methanol. The reaction mixture was acidified with methanolic HCl 5M until pH 3; at that point the solution color changed to dark yellow. The reaction was kept under reflux and monitored by TLC until the starting material was consumed. The solvent was then evaporated under reduced pressure, giving an orange-yellow oil. This residue was dissolved in water and basified to pH > 7 by addition of a few drops of NaOH 6 M, to break up the possible cyanoborate adducts. The solution was then washed with brine and extracted several times with dichloromethane, the combined organic extracts were dried with MgSO4 and the solvent evaporated under reduced pressure affording crude yellowish solids. Pure N33red and N34red were obtained after column chromatography with Et2O/MeOH 96.5:3.5 and by recrystallization from CH2Cl2/petroleum ether 2:3, respectively (adapted from ([Borch et al., 1971])). Both N33red and N34red are very stable in aqueous solution (PBS with 5% DMSO) for at least 48 h (Supplementary Figure S5).
# Figure S5 – Electronic absorption spectra of N33red and N34red in PBS buffer pH 7.4 with 5 % DMSO
# were monitored over 3 days. The fluctuation of the spectra in the UV region of N33red at 240 nm was
# less than 1.2% while for N34red at 269 nm was less than 2.5%. The time dependence of the absorbance
# uncertainty, thus confirming the stability of both compounds for at least 3 days.
# [8] = Octanol-water partition coefficient, shake-flask method; type: physicochemical; conditions: pH 7.5, room temperature, preliminary assessment
# Description: Lipophilicity was evaluated as log Po/w, the octanol-water partition coefficient obtained by the shake-flask method ([Ràfols et al., 2012]; [Martins et al., 2014]), and as log Kp(NaDS/w) the partition coefficient towards sodium dodecyl sulfate (NaDS) anionic micelles obtained by differential spectrophotometry for INH, INH-C10, N33 and N34 in previous works ([Ràfols et al., 2012]; [Martins et al., 2014]; [Santos et al., 2020]). […] For both compounds, samples were dissolved in water-saturated octanol at pH 7.5 (KH2PO4/NaOH) to guarantee negligible ionization. The partition to octanol-saturated aqueous buffer was evaluated, at room temperature, using a volume ratio, ro/w, of 5/30 and 10/30 for N33red and 2.5/40, 5/40 for N34red, after sonication of the solutions and partition on a mechanical tumbler. Equilibrium concentrations were determined by UV-Vis spectrophotometry between 200 and 500 nm after phase separation.
# [9] = test system: M. tuberculosis H37Rv ATCC27294 (wt); assay: microbe, parasite or virus in culture; type: cell-based; parameters: MIC (wt): unit not given here; conditions: for MIC: Mycobacterium tuberculosis, wt Mtb H37Rv, tested from 0.03125 to 128 µM; for MIC (wt): Table S1; for activity against the wild-type strain: in words
# [10] = target: T1, human serum albumin (HSA); conditions: for 10-3 K’’b / M-1, HSA binding constant from the variation in amplitude-weighted mean fluorescence lifetime: head prints 10-3 K’’b / M-1, reverse of the dissociation constant
# Description: as §1
# Time-resolved fluorescence measurements were carried out by the single photon counting technique, using a nanoLED N-280 (Horiba Jobin Yvon, Villeneuve D'ascq, France) for the excitation of the protein. […] Ludox® was the scattering agent used to obtain the instrumental response function. The experimental fluorescence intensity decays were analysed with the software TRFA® version 1.4 (Minsk, Belarus). The fluorescence intensity decays, I(t), were analysed by fitting a sum of exponentials, and the decay law was then obtained according to Eq. 1: I(t)= ∑i=1nαi⁡exp(−t/τi) (1) where α i and τ i are the normalized amplitude and lifetime of component i, respectively.
# The changes in quantum yield due to processes affecting the fluorescence lifetime were assessed from the amplitude-weighted mean fluorescence lifetime, τ¯ , calculated using Eq. 2: τ¯=∑i=1nαiτi (2)
# When used to analyse time-resolved fluorescence data, F is replaced by τ¯ .
# [11] = test system: HepG2; conditions: cited from earlier work
# [12] = head prints 10-3 Kbc / M-1, equimolar HSA and warfarin, reverse of the dissociation constant
# [13] = HepG2, 72 h incubation, ref Lupien et al., 2018
Compound,"MIC (wt) ([2]; wt Mtb H37Rv, 2014)",IC50 [4],Kd [5],"10-3 Kbc / M-1, binding constant for the warfarin binding site [5, 12]",Kd [6],"10-3 K’b / M-1, HSA binding constant from fluorescence intensity variation not accounted for by the decrease in lifetime [6]",Kd [10],other results
"NNC(=O)c1ccncc1 [INH, isonicotinoylhydrazide, reference compound]",0.29 ^a µM,> 200 µM,4550 ± 50 µM,0.22 ± 0.01 10^3 M-1,2.72 mM (2×) and 1.65 mM,0.37 ± 0.01 10^3 M-1,,"log P o/w ± SD ([1]; ref Ràfols et al., 2012): −0.85 ± 0.01 ^b; MIC (wt) ([2]; Table S1, 2014 (per Table 2)): 0.04 g/mL; Kd [3]: 390 µM; effect on HepG2 cell viability ([4]; up to 200 µM, 72 h): did not significantly affect HepG2 cell viability; Kd ([6]; K d for HSA, fluorescence intensity corrected for inner filter effects, steady-state fluorescence, text and Figure S7): ~1000 µM"
"COC(=O)c1ccc(CNNC(=O)c2ccncc2)cc1 [Compound N33red, methyl 4-((2-isonicotinoylhydrazinyl)methyl)benzoate]",,> 200 µM,900 ± 300 µM,,600 µM (2×) and 560 µM,1.77 ± 0.65 10^3 M-1,,"stability in aqueous solution ([7]; 48 h): at least 48 h; stability in aqueous solution ([7]; 3 days): at least 3 days; fluctuation of the absorption spectra in the UV region [7]: less than 1.2%; logP [8]: 1.33 ± 0.04; Kd ([5]; 10-3 Kbc / M-1, binding constant for the warfarin binding site, head prints 10-3 Kbc / M-1, equimolar HSA and warfarin, reverse of the dissociation constant): 746 µM; MIC [9]: 2 µM; MIC (wt) [9]: 0.6; activity against the wild-type strain [9]: active"
"O=C(NNCc1ccc(Oc2ccccc2)cc1)c1ccncc1 [Compound N34red, N'-(4-phenoxybenzyl)isonicotinohydrazide]",,48.5 µM,340 ± 20 µM,2.99 ± 0.17 10^3 M-1,150 µM and 140 µM and 90 µM,,730 µM,stability in aqueous solution ([7]; 48 h): at least 48 h; stability in aqueous solution ([7]; 3 days): at least 3 days; fluctuation of the absorption spectra in the UV region [7]: less than 2.5%; logP [8]: 2.6 ± 0.2; MIC [9]: 1 µM; MIC (wt) [9]: 0.3; activity against the wild-type strain [9]: active
"COC(=O)c1ccc(/C=N/NC(=O)c2ccncc2)cc1 [Compound N33, methyl (E)-4-((2-isonicotinoylhydrazineylidene)methyl)benzoate]",1.06 ^a µM,> 25 µM,54 ± 4 µM,18.5 ± 1.3 10^3 M-1,160 µM and 200 µM and 120 µM,5.00 ± 2.50 10^3 M-1,80 ± 60 µM,"log P o/w ± SD ([1]; ref Martins et al., 2014): 1.32 ± 0.06 ^c; 10-3 K’’b / M-1, HSA binding constant from the variation in amplitude-weighted mean fluorescence lifetime [10]: 12.5 ± 9.4 10^3 M-1"
"CN(C)CCCN1c2ccccc2Sc2ccc(Cl)cc21 [Chlorpromazine, reference compound]",,13.9 µM,,,,,,"IC50 ([11]; same cell line (HepG2), 24 h incubation, ref Wang et al., 2002): 34.7 µM"
"O=C(N/N=C/c1ccc(Oc2ccccc2)cc1)c1ccncc1 [Compound N34, (E)-N'-(4-phenoxybenzylidene)isonicotinohydrazide]",0.95 ^a µM,> 200 µM,128 ± 5 µM,7.8 ± 0.3 10^3 M-1,130 µM and 110 µM and 70 µM,,521 µM,
COc1nc2ccc(Br)cc2cc1[C@@H](c1ccccc1)[C@@](O)(CCN(C)C)c1cccc2ccccc12 [bedaquiline],,,,,,,,"IC50 [11, 13]: 17.4 µM"
C[C@]1(COc2ccc(N3CCC(Oc4ccc(OC(F)(F)F)cc4)CC3)cc2)Cn2cc([N+](=O)[O-])nc2O1 [delamanid],,,,,,,,"IC50 [11, 13]: 98.9 µM"
CO[C@H]1/C=C/O[C@@]2(C)Oc3c(C)c(O)c4c(O)c(c(/C=N/N5CCN(C)CC5)c(O)c4c3C2=O)NC(=O)/C(C)=C\C=C\[C@H](C)[C@H](O)[C@@H](C)[C@@H](O)[C@@H](C)[C@H](OC(C)=O)[C@@H]1C [Rifampin],,,,,,,,"IC50 ([11]; ref Vahdati-Mashhadian et al., 2013): 25.5 µM"
"CCCCCCCCCC(=O)NNC(=O)c1ccncc1 [INH-C10, N′-decanoylisonicotinoylhydrazide]",0.38 ^a µM,> 25 µM,400 ± 200 µM,2.43 ± 0.86 10^3 M-1,46 µM and 50 µM and 70 µM,18.6 ± 5.58 10^3 M-1,120 ± 3 µM,"log P o/w ± SD ([1]; ref Ràfols et al., 2012): 3.5 ± 0.2 ^b; 10-3 K’’b / M-1, HSA binding constant from the variation in amplitude-weighted mean fluorescence lifetime [10]: 8.33 ± 0.21 10^3 M-1"
